According to article PMC7799364, “Dual inhibition of the terminal oxidases eradicates antibiotic‐tolerant Mycobacterium tuberculosis” (EMBO Molecular Medicine, 2020):

Legend:
[1] = target: T1, cytochrome bcc (QcrB, cytochrome b subunit of cytochrome bcc:aa3) (Mycolicibacterium smegmatis, UniProt A0R052); assay: NADH-based heme difference spectra of wild-type IMVs with […] Q203; Q203 also inhibits OCR of ΔcydAB IMVs; type: cell-based
T1 construct: gene MSMEG_4263; native cytochrome bcc-aa3 supercomplex in wild-type inverted-membrane vesicles; with cytochrome bcc-aa3 supercomplex

[2] = target: T2, cytochrome bd oxidase (Cyt-bd) (Mycolicibacterium smegmatis, UniProt A0QXA8); assay: reduced minus oxidized heme difference spectra of NADH-energized ΔqcrCAB IMVs with […] compound; type: cell-based
T2 construct: gene MSMEG_3233; native enzyme in inverted-membrane vesicles of M. smegmatis ΔqcrCAB; with CydB
T2 sequence (A0QXA8 1-487): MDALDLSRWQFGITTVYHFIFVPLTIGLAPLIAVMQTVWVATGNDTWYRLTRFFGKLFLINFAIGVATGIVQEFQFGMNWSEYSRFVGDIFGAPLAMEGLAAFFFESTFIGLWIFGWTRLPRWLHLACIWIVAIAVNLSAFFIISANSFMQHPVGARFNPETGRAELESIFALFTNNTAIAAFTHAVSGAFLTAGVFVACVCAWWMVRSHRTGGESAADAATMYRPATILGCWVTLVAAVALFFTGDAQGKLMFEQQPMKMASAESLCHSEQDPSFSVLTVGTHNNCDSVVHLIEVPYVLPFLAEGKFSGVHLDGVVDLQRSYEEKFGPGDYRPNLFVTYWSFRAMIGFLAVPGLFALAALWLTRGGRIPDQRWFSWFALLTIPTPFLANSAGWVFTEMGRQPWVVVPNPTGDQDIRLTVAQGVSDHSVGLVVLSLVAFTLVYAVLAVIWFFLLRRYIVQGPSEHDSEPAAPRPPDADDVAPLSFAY
T2 sequence (A0QXA7 1-350 partner): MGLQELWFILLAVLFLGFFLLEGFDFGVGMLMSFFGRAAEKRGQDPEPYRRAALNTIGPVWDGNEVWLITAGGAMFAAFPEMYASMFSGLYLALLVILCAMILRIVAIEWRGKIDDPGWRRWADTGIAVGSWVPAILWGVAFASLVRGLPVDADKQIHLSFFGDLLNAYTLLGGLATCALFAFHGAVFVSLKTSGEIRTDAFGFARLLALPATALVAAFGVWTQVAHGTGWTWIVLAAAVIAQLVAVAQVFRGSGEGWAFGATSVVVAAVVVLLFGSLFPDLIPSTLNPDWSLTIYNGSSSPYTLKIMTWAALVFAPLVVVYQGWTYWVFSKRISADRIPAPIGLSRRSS

| Compound | NADH-based heme difference spectra of wild-type IMVs with 7.5 μM Q203; Q203 also [1] | reduced minus oxidized heme difference spectra of NADH-energized ΔqcrCAB IMVs wi [2] |
| --- | --- | --- |
| CCc1nc2ccc(Cl)cn2c1C(=O)NCc1ccc(N2CCC(c3ccc(OC(F)(F)F)cc3)CC2)cc1 [Q203] | confirming drug binding and inhibition of the electron transfer within the cytochrome bcc complex |  |
| FC(F)(F)c1ccc(Oc2ccc(Nc3ncnc4ccccc34)cc2)cc1 [ND-011992, N‐(4‐(4‐(trifluoromethyl)phenoxy)phenyl)quinazolin‐4‐amine] |  | the compound selectively binds and affects electron transfer in the mycobacterial Cyt‐bd |
